This test has as its target T1, Recombinant human HSD17B13 enzyme (Homo sapiens, UniProt Q7Z5P4).
T1 sequence (Q7Z5P4 20-300): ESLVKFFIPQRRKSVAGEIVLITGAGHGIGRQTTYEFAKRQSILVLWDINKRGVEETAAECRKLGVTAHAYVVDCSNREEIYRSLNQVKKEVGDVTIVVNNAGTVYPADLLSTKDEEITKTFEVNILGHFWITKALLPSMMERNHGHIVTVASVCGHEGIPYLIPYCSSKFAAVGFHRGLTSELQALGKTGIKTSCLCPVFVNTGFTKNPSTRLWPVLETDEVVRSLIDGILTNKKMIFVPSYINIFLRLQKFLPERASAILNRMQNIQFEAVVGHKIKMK
Put plainly: HSD17b13 NAD(P)H-Glo biochemical assay. The settings on record: 50 uM estradiol, 1 mM NAD+, NAD(P)H-Glo luminescence; read-out: HSD17β13 IC50. Summed up: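 Luminescent NAD(P)H-Glo read-out, taken after 1 hour at RT, measured cofactor reduction. Substrate and cofactor were estradiol at 50 uM and NAD+ at 1 mM final, reacted with the recombinant human enzyme for 3 hours at 37° C in 20 mM Tris pH7.4, 0.002% Tween-20, 0.02% BSA. Compound was pre-incubated with enzyme for 20 minutes at RT.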

The structures appear in SMILES notation.

Turning to `Oc1cc2c(cnn2-c2ccc(-c3ccc(F)cc3)cc2)cc1F` [Compound 13.5, 5-Fluoro-1-(4′-fluoro-[1,1′-biphenyl]-4-yl)-1H-indazol-6-ol], the IC50 fell in the range of 100 to 1000 nM.

These data come from patent US20240083853A1, “HSD17B13 INHIBITORS AND USES THEREOF” (FL2022-001, Inc., priority 2020, published 2024).
